From paper PMC8948292, “Combining PEGylated mito-atovaquone with MCT and Krebs cycle redox inhibitors as a potential strategy to abrogate tumor cell proliferation” (Scientific Reports, 2022)

Columns and labels:
MiaPaCa-2 cells = experiment: Intracellular oxidants: HPLC of hydroethidine (HE) oxidation products; assay type: cell-based, human
Method: Hydroethidine (HE) or dihydroethidium was used as a fluorogenic probe to assess the cellular generation of superoxide and other peroxidatic oxidants[36],[37]. Cells were treated for 24 h with Mito-PEG5-ATO alone or in combination with AZD-3965 or CPI-613, followed by 1 h incubation with HE (10 µM). Cells were harvested and the cell pellet stored at − 80 °C until the day of high-performance liquid chromatography (HPLC) analysis. Sample preparation and HPLC analysis were performed as previously reported[32],[36]. 2-OH-E^+ was used as a specific marker for superoxide, and E^+-E^+ was used as a specific marker for intracellular one-electron oxidants[36],[37].
HE was purchased from Invitrogen (Carlsbad, CA). Stock solutions (20 mM and 5 mM, respectively) were prepared in deoxygenated DMSO (dimethyl sulfoxide) and stored at − 80 °C until use. Ethidium cation (bromide salt) was purchased from Sigma-Aldrich. The hydroxylated oxidation products from HE (2-OH-E^+) were prepared by reacting the probes with Fremy’s salt as previously described in detail[70],[71]. The dimeric products were prepared by reacting the probes with excess potassium ferricyanide, as detailed elsewhere. Synthesized standards of all oxidation products of HE were purified by HPLC. HPLC-based measurements of HE and its oxidation products were performed using an Agilent 1100 system equipped with absorption and fluorescence detectors and refrigerated autosampler (4 °C). The samples (50 µL) were injected into a reverse phase column (Phenomenex, Kinetex C18, 100 mm × 4.6 mm, 2.6 µm) equilibrated with 20% acetonitrile and 80% water containing 0.1% trifluoroacetic acid. The compounds were eluted by increasing the content of acetonitrile from 20 to 56% over 4.5 min at a flow rate of 1.5 mL/min. The absorption detector was used to measure 3,8-diamino-6-phenylphenanthridine (at 290 nm; retention time: 2.5 min), HE-E^+ (at 290 nm; retention time: 4.1 min), E^+-E^+ (at 290 nm; retention time: 4.3 min), and HE (at 370 nm; retention time: 1.6 min). A fluorescence detector (initial excitation at 358 nm and emission at 440 nm) was used to monitor HE (when present at low concentrations). At 2.3 min after injection, the fluorescence parameters were changed (excitation at 490 nm and emission at 567 nm) for sensitive detection of 2-OH-E^+ (retention time: 3.2 min) and E^+ (retention time: 3.3 min).

A549 cells = experiment: Cell proliferation (cell confluence), IncuCyte Live-Cell Analysis System; assay type: cell-based; conditions: Homo sapiens, A549, read-out: IC50, inhibition of A549 cell proliferation
Method: (§1) The following cell lines were obtained from the American Type Culture Collection (Manassas, VA), where they were regularly authenticated: MiaPaCa-2 (ATCC Cat# CRL-1420, human pancreatic cancer cells), U87MG (ATCC Cat# HTB-14, human brain cancer cells), A549 (ATCC Cat# CCL-185, lung cancer cells), and HCT-116 (ATCC Cat# CCL-247, colon cancer cells). All cell lines were grown at 37 °C in 5% carbon dioxide. MiaPaCa-2 cells were maintained in Dulbecco's Modified Eagle Medium (Thermo Fisher Scientific, Waltham, MA; Cat# 11965) supplemented with 10% fetal bovine serum. U87MG, A549, and HCT-116 cells were maintained in RPMI 1640 medium (Thermo Fisher Scientific, Cat# 11875), supplemented with 10% fetal bovine serum. All cells were stored in liquid nitrogen and used within 20 passages after thawing.
(§2) The IncuCyte Live-Cell Analysis System was used to monitor cell proliferation[3],[33],[67]. As shown in previous publications[3],[67], this imaging system is probe-free and noninvasive, and enables continuous monitoring of cell confluence over several days. The increase in the percentage of cell confluence was used as a surrogate marker of cell proliferation. In a 96-well plate, cells were plated at 1,000 cells per well in triplicates and left to adhere overnight. Cells were then treated with Mito-PEG-ATO analogs, and the cell confluency was recorded over several days in the IncuCyte Live-Cell Analysis System.
(§3) Figure S7. Effects of Mito-PEG-ATO analogs on the proliferation of human lung cancer (A549) cells and human colon cancer (HCT-116) cells. (A) The effects of Mito-PEG5-ATO and ATO on the proliferation of A549 (left) or HCT-116 (right) cells were monitored in the IncuCyte Live-Cell Analysis system. The IncuCyte analyzer provides real-time updates on cell confluence, based on segmentation of high definition-phase contrast images. Representative cell images were shown as a segmentation mask illustrated in brown when control cells reached 90% confluence (vertical solid black line). (B) The IC50 values for A549 (left) or HCT-116 (right) cells were determined at the point at which control cells reached ~90% confluence (vertical solid black line). Relative cell confluence (control is taken as 100%) is plotted against concentration. Dashed lines represent the fitting curves used to determine the IC50 values as indicated. Data shown are the mean±SD.

HCT-116 cells = experiment: as above; assay type: cell-based; conditions: Homo sapiens, HCT-116, read-out: IC50, inhibition of HCT-116 cell proliferation
Method: as §1, §2, §3

Cc1[nH]nc(C(F)(F)F)c1Cc1sc2c(c1C(=O)N1C[C@](C)(O)CO1)c(=O)n(C)c(=O)n2C(C)C [AZD-3965]
Intracellular oxidant-induced HE-derived products, in combination with Mito-PEG5-ATO (MiaPaCa-2 cells; 24 h, with Mito-PEG5-ATO 0.05 µM, AZD-3965 200 µM or CPI-613 200 µM): modest and additive increase

O=C1C(OCCOCCOCCOCCOCC[P+](c2ccccc2)(c2ccccc2)c2ccccc2)=C([C@H]2CC[C@H](c3ccc(Cl)cc3)CC2)C(=O)c2ccccc21.[Br-] [Mito-PEG5-ATO, [14-((3-(trans-4-(4-chlorophenyl)cyclohexyl)-1,4-dioxo-1,4-dihydronaphthalen-2-yl)oxy)-3,6,9,12-tetraoxatetradecyl]triphenylphosphonium bromide]
IC50 (A549 cells): 110 nM
IC50 (HCT-116 cells): 140 nM
HE oxidation products 2-OH-E+, E+ and E+-E+ (MiaPaCa-2 cells; 24 h treatment, then HE 10 µM 1 h): slight but significant increase
